This is an account of results in PMC6560211, “ApoAI-derived peptide increases glucose tolerance and prevents formation of atherosclerosis in mice” (Diabetologia, 2019).

No end group written: not given here.

Data set [1] is described as follows: Peptide homogeneity (particle size) by dynamic light scattering. The class given is physicochemical. How it is done:
Peptide (lyophilised powder) produced by Red Glead (Lund, Sweden) was reconstituted in Milli-Q water and then either used directly or mixed in a 1:1 ratio with 6 mol/l guanidine HCl in 2× PBS to give a monodisperse solution, followed by desalting using a column equilibrated with PBS, pH 7.4, using ÄKTAxpress fast protein LC (GE Healthcare, Uppsala, Sweden). Peptide integrity was analysed using circular dichroism spectroscopy. Peptide solubility was assayed at Red Glead using HPLC. Peptide stability in physiologic buffer or blood plasma (human or mouse) over 2 h was assayed at the Science for Life Laboratory (Uppsala, Sweden). For detailed methods, please refer to the electronic supplementary material (ESM) Methods.
The peptide RG54 was synthesised with natural amino acids and then modified with an acetylation cap on the N-terminus in order to reduce the susceptibility for proteolytic degradation by […] (ESM Fig. 3a). […] Peptide integrity following the denaturation/refolding procedure was confirmed using gel electrophoresis and circular dichroism spectroscopy analyses (ESM Fig. 3d,e) and by peptide stability assays (buffer or plasma) (ESM Fig. 3f).
ESM Figure 3. Peptide characterization for native or refolded RG54.
(a) Full peptide sequence. Particle size distribution of RG54 was analysed by DLS and frequency curves generated for Native (b) or Refolded (c) peptide. […]

In the next data set the test system is C2C12 myotubes. Description: Glucose uptake in muscle myotubes. The class given is cell-based, rat. The settings on record: different concentrations of RG54; three independent experiments. How it is done: C2C12 myoblasts were differentiated to myotubes by switching from growth media to 2% FBS DMEM for 7 days, with the addition of cytosine arabinoside (Sigma, Stockholm, Sweden) from day 3 to 5 to eliminate proliferating cells. Prior to stimulation, cells starved for 2 h in serum-free DMEM were treated as described and glucose uptake measurements were carried out. See ESM Methods for more details.
Fig. 3 RG54 induces skeletal muscle glucose uptake and primes INS-1E cells to increase GSIS. (a) C2C12 skeletal muscle myotubes were incubated in the absence or presence of different concentrations of RG54 or with insulin, followed by glucose uptake measurements. Values are means ± SEM from three independent experiments. *p≤0.05, **p≤0.01, ***p≤0.001 vs control. (b) INS-1E cells were incubated for 2 h in the absence or presence of different concentrations of RG54 in a low-glucose environment (preincubation). Buffer was replaced with one containing low (3.3 mmol/l) or high (20 mmol/l) glucose but no RG54 peptide. Insulin secretion was measured after 1 h glucose challenge. […]
No statistical methods were used to predetermine sample sizes, but sample sizes are similar to those reported in the field. […] Group allocation was blinded for all mouse work when possible (such as collection of blood or tissues, sample quantification and analysis, and atherosclerosis scoring). […]

Turning to “Ac-AEYHAKATEHLSTLSEKAKPALEDLRQGLLPVLESFKVSFLSALEEYTKKLNTQ [RG54]”, the “homogeneity (DLS) after chemical denaturation and refolding” value in data set [1] (6 mol/l guanidine HCl in 2x PBS 1:1, desalted into PBS pH 7.4) is “monodisperse preparations”. For the same substance, the “homogeneity, dynamic size range (DLS)” value in data set [1] (native peptide reconstituted in Milli-Q water, five individual experiments) is “significant inter- and intra-sample heterogeneity”. The glucose uptake result in the data set with C2C12 myotubes is on record as “dose-dependent stimulation”.
